Assay results taken from patent publication US11332503B2, “Peptides for treatment and prevention of hyperglycaemia” (UNIVERSITE DE STRASBOURG, priority 2017, dated 2022).
Positions of bridges follow the written chain, without caps; N, C: chain ends. Non-standard residues stand in square brackets, D forms with d. R8 = C=CCCCCCC[C@@](C)(N)C(=O)O; S5 = C=CCCC[C@](C)(N)C(=O)O

System: human primary adipocytes
Test: In vitro 2-deoxy-D-glucose-6-phosphate (DG6P) uptake in human primary adipocytes
Format: cell-based
Protocol: Human white visceral preadipocytes (Catalog #: C-12732; PromoCell) were purchased. The preadipocytes were seeded according to manufacturer's protocol and cultured in the Preadipocyte growth medium (Catalog #: C-27410; PromoCell) to confluence. Once confluence was reached, adipogenic differentiation was triggered through medium change to get mature human adipocytes. For the culture without insulin, Adipocyte Basal Medium (Catalog #: C-2431; PromoCell) without insulin was complemented with 5 g/L of […], 8 μg/mL d-Biotin, 400 ng/mL Dexamethasone (following manufacturer's procedure). Native peptides and their stapled counterparts as well as the scrambled peptides (corresponding to the same set of amino acids but rearranged randomly) were purchased from Eurogentec. Each peptide was diluted in saline and used at a dose of 2.5 ng per 10 cm square of cell culture surface area for in vitro studies or 2.5 ng of each peptide (A and B) was injected per mouse.
Mature adipocytes were cultured in 96 well plate. The adipocytes received the different peptides at the indicated concentration above. 24 hours later, the glucose absorption capacity if the treated cells were assessed using the Glucose Uptake Colorimetric Assay kit from Bio Vision (Catalog #: K676-100).
In vivo assessment of the effect of stapled peptides A and B injection in the adipose tissue of diet-induced diabetic WT mice. Mice were fed with a defined high fat/high glucose diet until they became intolerant to glucose (FIG. 5A, Prior Injection). Once the mice were glucose intolerant, these mice received an injection with a combination of the stapled peptides A and B directly in the subcutaneous fat and GTT was again performed a week later as depicted in FIG. 5B. […] FIG. 5C depicts pictures of the adipose tissue which received a combination of the stapled peptides A and B labelled with FAM (green dots indicated with the white arrows). […] A variety of modified stapled peptides were designed to test the effect of modifying the peptide sequence on insulin-independent glucose uptake into adipocytes. Peptides were obtained from CPC Scientific. Additional in vitro 2-deoxy-D-glucose-6-phosphate (DG6P) uptake results in human primary adipocytes for individual peptides of the present technology are provided in Tables 1-3.

Row | Substance | 2-DG6P (Table 1, peptides at 50 μM) | 2-DG6P compared to -Insulin (%) (Table 1, peptides at 50 μM) | also measured
1 | +Insulin: insulin-treated adipocytes, positive control of the DG6P uptake assay [reference compound] |  |  | 2-DG6P (Table 1, +Insulin control): 94.2 pmol; 2-DG6P compared to -Insulin (%) (Table 1, +Insulin control): 312.6%; 2-DG6P (Table 2, +Ins control): 79.3 pmol; 2-DG6P compared to -Insulin (%) (Table 2, +Ins control): 363.3%; 2-DG6P (Table 3, +Insulin control): 87.9 pmol; 2-DG6P compared to -Insulin (%) (Table 3, +Insulin control): 639.6%
2 | H-LPHET-R8-RLSQKV-S5-TKLDCLMFVEPA-OH [AT004] (H-LPHET[R8]RLSQKV[S5]TKLDCLMFVEPA-OH; staple 6-13; SMILES CSCC[C@H](NC(=O)[C@H](CC(C)C)NC(=O)[C@H](CS)NC(=O)[C@H](CC(=O)O)NC(=O)[C@H](CC(C)C)NC(=O)[C@H](CCCCN)NC(=O)[C@@H](NC(=O)[C@]1(C)CCCC=CCCCCCC[C@@](C)(NC(=O)[C@@H](NC(=O)[C@H](CCC(=O)O)NC(=O)[C@H](Cc2c[nH]cn2)NC(=O)[C@@H]2CCCN2C(=O)[C@@H](N)CC(C)C)[C@@H](C)O)C(=O)N[C@@H](CCCNC(=N)N)C(=O)N[C@@H](CC(C)C)C(=O)N[C@@H](CO)C(=O)N[C@@H](CCC(N)=O)C(=O)N[C@@H](CCCCN)C(=O)N[C@@H](C(C)C)C(=O)N1)[C@@H](C)O)C(=O)N[C@@H](Cc1ccccc1)C(=O)N[C@H](C(=O)N[C@@H](CCC(=O)O)C(=O)N1CCC[C@H]1C(=O)N[C@@H](C)C(=O)O)C(C)C) [reference compound] | 29.5 pmol | 98.0% | 
3 | H-LPHET-R8-RLSQKV-S5-TKLDCLMFVEPA-OH [AT005] (H-LPHET[R8]RLSQKV[S5]TKLDCLMFVEPA-OH; staple 6-13; SMILES CSCC[C@H](NC(=O)[C@H](CC(C)C)NC(=O)[C@H](CS)NC(=O)[C@H](CC(=O)O)NC(=O)[C@H](CC(C)C)NC(=O)[C@H](CCCCN)NC(=O)[C@@H](NC(=O)[C@]1(C)CCCC=CCCCCCC[C@@](C)(NC(=O)[C@@H](NC(=O)[C@H](CCC(=O)O)NC(=O)[C@H](Cc2c[nH]cn2)NC(=O)[C@@H]2CCCN2C(=O)[C@@H](N)CC(C)C)[C@@H](C)O)C(=O)N[C@@H](CCCNC(=N)N)C(=O)N[C@@H](CC(C)C)C(=O)N[C@@H](CO)C(=O)N[C@@H](CCC(N)=O)C(=O)N[C@@H](CCCCN)C(=O)N[C@@H](C(C)C)C(=O)N1)[C@@H](C)O)C(=O)N[C@@H](Cc1ccccc1)C(=O)N[C@H](C(=O)N[C@@H](CCC(=O)O)C(=O)N1CCC[C@H]1C(=O)N[C@@H](C)C(=O)O)C(C)C) [reference compound] | 27.7 pmol | 92.0% | 
4 | H-LPHET-R8-RLSQKV-S5-TKLDCLMFVEPA-OH [AT006] (H-LPHET[R8]RLSQKV[S5]TKLDCLMFVEPA-OH; staple 6-13; SMILES CSCC[C@H](NC(=O)[C@H](CC(C)C)NC(=O)[C@H](CS)NC(=O)[C@H](CC(=O)O)NC(=O)[C@H](CC(C)C)NC(=O)[C@H](CCCCN)NC(=O)[C@@H](NC(=O)[C@]1(C)CCCC=CCCCCCC[C@@](C)(NC(=O)[C@@H](NC(=O)[C@H](CCC(=O)O)NC(=O)[C@H](Cc2c[nH]cn2)NC(=O)[C@@H]2CCCN2C(=O)[C@@H](N)CC(C)C)[C@@H](C)O)C(=O)N[C@@H](CCCNC(=N)N)C(=O)N[C@@H](CC(C)C)C(=O)N[C@@H](CO)C(=O)N[C@@H](CCC(N)=O)C(=O)N[C@@H](CCCCN)C(=O)N[C@@H](C(C)C)C(=O)N1)[C@@H](C)O)C(=O)N[C@@H](Cc1ccccc1)C(=O)N[C@H](C(=O)N[C@@H](CCC(=O)O)C(=O)N1CCC[C@H]1C(=O)N[C@@H](C)C(=O)O)C(C)C) [reference compound] | 30.7 pmol | 102.0% | 
5 | H-VE(AAB)TM-R8-EKRVLA-S5-LDKPPFLTQLHS-OH [AT017] | 55.4 pmol | 184.0% | 
6 | H-VECT(AAH)-R8-EKRVLA-S5-LDKPPFLTQLHS-OH [AT018] | 28.2 pmol | 93.5% | 
7 | H-VECTM-R8-EKRVLA-S5-LD-OH (H-VECTM[R8]EKRVLA[S5]LD-OH; staple 6-13; SMILES CSCC[C@H](NC(=O)[C@@H](NC(=O)[C@H](CS)NC(=O)[C@H](CCC(=O)O)NC(=O)[C@@H](N)C(C)C)[C@@H](C)O)C(=O)N[C@]1(C)CCCCCCC=CCCC[C@@](C)(C(=O)N[C@@H](CC(C)C)C(=O)N[C@@H](CC(=O)O)C(=O)O)NC(=O)[C@H](C)NC(=O)[C@H](CC(C)C)NC(=O)[C@H](C(C)C)NC(=O)[C@H](CCCNC(=N)N)NC(=O)[C@H](CCCCN)NC(=O)[C@H](CCC(=O)O)NC1=O) [AT016] | 51.5 pmol | 170.9% | 2-DG6P (Table 3 dose response, 1 μM): 23.7 pmol; 2-DG6P compared to -Insulin (%) (Table 3 dose response, 1 μM): 172.4%; 2-DG6P (Table 3 dose response, 10 μM): 38.6 pmol; 2-DG6P compared to -Insulin (%) (Table 3 dose response, 10 μM): 280.6%; 2-DG6P (Table 3 dose response, 100 μM): 51.4 pmol; 2-DG6P compared to -Insulin (%) (Table 3 dose response, 100 μM): 373.7%
8 | H-VECTM-R8-EKRVLA-S5-LDKP-OH (H-VECTM[R8]EKRVLA[S5]LDKP-OH; staple 6-13; SMILES CSCC[C@H](NC(=O)[C@@H](NC(=O)[C@H](CS)NC(=O)[C@H](CCC(=O)O)NC(=O)[C@@H](N)C(C)C)[C@@H](C)O)C(=O)N[C@]1(C)CCCCCCC=CCCC[C@@](C)(C(=O)N[C@@H](CC(C)C)C(=O)N[C@@H](CC(=O)O)C(=O)N[C@@H](CCCCN)C(=O)N2CCC[C@H]2C(=O)O)NC(=O)[C@H](C)NC(=O)[C@H](CC(C)C)NC(=O)[C@H](C(C)C)NC(=O)[C@H](CCCNC(=N)N)NC(=O)[C@H](CCCCN)NC(=O)[C@H](CCC(=O)O)NC1=O) [AT015] | 35.7 pmol | 118.6% | 2-DG6P (Table 3 dose response, 1 μM): 16.6 pmol; 2-DG6P compared to -Insulin (%) (Table 3 dose response, 1 μM): 121.0%; 2-DG6P (Table 3 dose response, 10 μM): 28.9 pmol; 2-DG6P compared to -Insulin (%) (Table 3 dose response, 10 μM): 210.6%; 2-DG6P (Table 3 dose response, 100 μM): 39.2 pmol; 2-DG6P compared to -Insulin (%) (Table 3 dose response, 100 μM): 284.9%
9 | H-VECTM-R8-EKRVLA-S5-LDKPPF-OH (H-VECTM[R8]EKRVLA[S5]LDKPPF-OH; staple 6-13; SMILES CSCC[C@H](NC(=O)[C@@H](NC(=O)[C@H](CS)NC(=O)[C@H](CCC(=O)O)NC(=O)[C@@H](N)C(C)C)[C@@H](C)O)C(=O)N[C@]1(C)CCCCCCC=CCCC[C@@](C)(C(=O)N[C@@H](CC(C)C)C(=O)N[C@@H](CC(=O)O)C(=O)N[C@@H](CCCCN)C(=O)N2CCC[C@H]2C(=O)N2CCC[C@H]2C(=O)N[C@@H](Cc2ccccc2)C(=O)O)NC(=O)[C@H](C)NC(=O)[C@H](CC(C)C)NC(=O)[C@H](C(C)C)NC(=O)[C@H](CCCNC(=N)N)NC(=O)[C@H](CCCCN)NC(=O)[C@H](CCC(=O)O)NC1=O) [AT014] | 58.8 pmol | 195.1% | 
10 | H-VECTM-R8-EKRVLA-S5-LDKPPFLTQLHS-NH2 [AT003] | 46.2 pmol | 153.3% | 
